Measurements taken from patent publication US6407081B1, “Method for inhibiting cytokine production by cells” (Previsan AG, priority 1997, dated 2002).

Columns and labels:
IL-2 = IL-2 production by PHA/PMA-stimulated mononuclear cells, ELISA (Example 7); type: cell-based; conditions: human mononuclear cells, PHA + PMA, 48 h
Experimental: (§1) 200 ml of blood are taken and heparinised from healthy male and female volunteers. Mononuclear cells are isolated by Ficoll-Hypaque centrifugation and resuspended in a medium consisting of RPMI 1640 complemented by 5% autologous serum, […] of glutamine, […] of penicillin, 10 μg/ml of streptomycin, 10 μg/ml of phytohaemagglutinin (PHA), 10 μg/ml of phorbol myristate acetate (PMA) and test compounds as stated per individual experiment at a cellular density of 2,000,000 per ml. The cells are distributed in 96 well microtitre plates in 250 μl portions per well and incubated for 48 hours at 37° C. The supernatants are then harvested and the IL-2 and IL-5 concentrations quantified by a standard ELISA assay using a biotin/streptavidin system. By way of variant, PHA was replaced with 0.1 μg/ml of monoclonal antibodies directed against human CD3 in order to achieve more specific activation of the T cells.

IL-5 = IL-5 production by PHA/PMA-stimulated mononuclear cells, ELISA (Example 7); type: cell-based; conditions: human mononuclear cells, PHA + PMA, 48 h
Experimental: as §1

tumour necrosis factor = conditions: dose of 1 mmol; endotoxin-induced activation of alveolar macrophages; cited from earlier work
[1] = medium not stated; cited from earlier work

| Structure (SMILES) | IL-2 inhibition (%) (IL-2; 10 μM) | IL-2 inhibition (%) (IL-2; 32 μM) | IL-5 inhibition (%) (IL-5; 10 μM) | IL-5 inhibition (%) (IL-5; 32 μM) | production of tumour necrosis factor (tumour necrosis factor) | half-life [1] | inhibition at 10 µM (IL-2; 10 μM) [%] | inhibition at 32 µM (IL-2; 32 μM) [%] | inhibition at 10 µM (IL-5; 10 μM) [%] | inhibition at 32 µM (IL-5; 32 μM) [%] |
| --- | --- | --- | --- | --- | --- | --- | --- | --- | --- | --- |
| CN(C)C(=O)N=NC(=O)N(C)C [A, 1,1′-azobisdimethylformamide] | 3 | 28 | 12 | 29 | insignificant increase | only a few minutes |  |  |  |  |
| O=C(N=NC(=O)N1CCCCC1)N1CCCCC1 [B, 1,1′-(azodicarbonyl)dipiperidine] |  |  |  |  |  |  | 0.2 | 11 | 17 | 39 |
| O=C(N=NC(=O)N1CCOCC1)N1CCOCC1 [C, 1,1′-(azodicarbonyl)dimorpholine] | 6 | 9 | 37 | 51 |  |  |  |  |  |  |
